Experimental data: PubChem BioAssay AID256 (DTP/NCI, 2004)
Where “and” joins values, the source holds several entries; their conditions need not be identical. Equal values may be shown once. Inconclusive results and toxic doses are left out. The calls were made as follows: active = survival T/C of 150% or more; inactive = T/C below 125% in these data.

System: CD2F1 mice, L1210 leukemia ip, survival T/C
Experiment: NCI In Vivo Anticancer Drug Screen. Data for tumor model L1210 Leukemia (intraperitoneal) in CD2F1 (CDF1) mice
Details: endpoint: mean survival time, higher = longer survival
Outline: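 Each value reflects a quotient of treated over vehicle control outcomes in mice with a transplanted tumor.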

[1] = dose: 100.0 mg/kg/injection, schedule: Q01DX001 (ip), vehicle: Klucel (hydroxypropylcellulose) (HPC)
[2] = dose: 100.0 mg/kg/injection, schedule: Q04DX002 (ip), vehicle: saline with Tween-80
[3] = dose: 200.0 mg/kg/injection, schedule: Q01DX001 (ip), vehicle: Klucel (hydroxypropylcellulose) (HPC)
[4] = dose: 200.0 mg/kg/injection, schedule: Q04DX002 (ip), vehicle: saline with Tween-80
[5] = dose: 400.0 mg/kg/injection, schedule: Q04DX002 (ip), vehicle: saline with Tween-80
[6] = dose: 100.0 mg/kg/injection, schedule: Q04DX003 (ip), vehicle: saline with Tween-80
[7] = dose: 200.0 mg/kg/injection, schedule: Q04DX003 (ip), vehicle: saline with Tween-80
[8] = dose: 400.0 mg/kg/injection, schedule: Q04DX003 (ip), vehicle: saline with Tween-80
[9] = dose: 100.0 mg/kg/injection, schedule: Q01DX001 (ip), vehicle: saline with Tween-80
[10] = dose: 200.0 mg/kg/injection, schedule: Q01DX001 (ip), vehicle: saline with Tween-80
[11] = dose: 100.0 mg/kg/injection, schedule: Q01DX001 (ip), vehicle: saline
[12] = dose: 25.0 mg/kg/injection, schedule: Q04DX002 (ip), vehicle: saline with Tween-80
[13] = dose: 50.0 mg/kg/injection, schedule: Q04DX002 (ip), vehicle: saline with Tween-80
[14] = dose: 100.0 mg/kg/injection, schedule: Q04DX002 (ip), vehicle: other
[15] = dose: 200.0 mg/kg/injection, schedule: Q04DX002 (ip), vehicle: other
[16] = dose: 400.0 mg/kg/injection, schedule: Q04DX002 (ip), vehicle: other

Measured: T/C

COc1cccc2c1C(=O)c1c(O)c3c(c(O)c1C2=O)C[C@@](O)(C(=O)CO)C[C@@H]3OC1CC(N(C)C)C(O)C(C)O1 (stereo not given in full)
inactive: dose: 0.25 mg/kg/injection, schedule: Q01DX009 (ip), vehicle: saline 118 % of control and 108 % of control | dose: 0.5 mg/kg/injection, schedule: Q01DX009 (ip), vehicle: saline 117 % of control and 121 % of control | dose: 1.0 mg/kg/injection, schedule: Q01DX009 (ip), vehicle: saline 115 % of control and 124 % of control | dose: 2.0 mg/kg/injection, schedule: Q01DX009 (ip), vehicle: saline 97 % of control and 102 % of control

O=C(Nc1ccccc1)Nc1ccc2c(c1)oc1ccccc12
inactive: dose: 50.0 mg/kg/injection, schedule: Q01DX001 (ip), vehicle: Klucel (hydroxypropylcellulose) (HPC) 108 % of control | [1] 97 % of control | [2] 95 % of control | [3] 94 % of control | [4] 91 % of control | [5] 98 % of control

CCOCCC(=O)NCc1ccccc1
inactive: [6] 100 % of control | [7] 98 % of control | [8] 102 % of control

Cc1cn(C2CC(O)C(CN=[N+]=[N-])O2)c(=O)[nH]c1=O (stereo not given)
inactive: dose: 12.5 mg/kg/injection, schedule: Q01DX005 (ip), vehicle: other 93 % of control | dose: 25.0 mg/kg/injection, schedule: Q01DX005 (ip), vehicle: other 96 % of control | dose: 50.0 mg/kg/injection, schedule: Q01DX005 (ip), vehicle: other 95 % of control | dose: 100.0 mg/kg/injection, schedule: Q01DX005 (ip), vehicle: other 93 % of control | dose: 200.0 mg/kg/injection, schedule: Q01DX005 (ip), vehicle: other 93 % of control

O=C(Cc1cccc([N+](=O)[O-])c1)Nc1cccc(S(=O)(=O)F)c1
inactive: [9] 96 % of control | [10] 95 % of control | dose: 400.0 mg/kg/injection, schedule: Q01DX001 (ip), vehicle: saline with Tween-80 96 % of control

O=C(O)c1c[nH]c2ccccc2c1=O
inactive: [6] 101 % of control | [7] 101 % of control | [8] 90 % of control

CCOc1ccc(/C=C/c2cc[n+](C)cc2)cc1OC
inactive: [11] 103 % of control

O=C(COc1c(Cl)cc(Cl)cc1Cl)Nc1ccc2c(c1)C(=O)c1ccccc1C2=O
inactive: [12] 98 % of control | [13] 98 % of control | [2] 94 % of control

COC(=O)c1ccc(C)c(O)c1[N+](=O)[O-]
inactive: dose: 100.0 mg/kg/injection, schedule: Q01DX009 (ip), vehicle: saline with Tween-80 100 % of control | dose: 200.0 mg/kg/injection, schedule: Q01DX009 (ip), vehicle: saline with Tween-80 96 % of control | dose: 400.0 mg/kg/injection, schedule: Q01DX009 (ip), vehicle: saline with Tween-80 101 % of control

C=CCOc1ccc(Cl)cc1
inactive: [1] 108 % of control | [3] 92 % of control | dose: 400.0 mg/kg/injection, schedule: Q01DX001 (ip), vehicle: Klucel (hydroxypropylcellulose) (HPC) 100 % of control

O=[N+]([O-])/C=C\c1ccccc1
inactive: [6] 96 % of control | [7] 90 % of control | [8] 86 % of control

CCN(CC)CC(C)Nc1c2ccc(Cl)cc2nc2ccc(OC)cc12 (stereo not given)
inactive: [2] 94 % of control | [4] 91 % of control | [5] 97 % of control

N#Cc1cn(C2OC(CO)C(O)C2O)c2ncn(N)c(=N)c12 (stereo not given)
inactive: dose: 25.0 mg/kg/injection, schedule: Q01DX005 (ip), vehicle: water 110 % of control | dose: 50.0 mg/kg/injection, schedule: Q01DX005 (ip), vehicle: water 111 % of control | dose: 100.0 mg/kg/injection, schedule: Q01DX005 (ip), vehicle: water 118 % of control

CCCCCCCCCCCCCCCCCCN1CCCN(CCCCCCCCCCCCCCCCCC)CC1
inactive: dose: 25.0 mg/kg/injection, schedule: Q01DX009 (ip), vehicle: saline with Tween-80 107 % of control and 111 % of control | [12] 93 % of control and 98 % of control | dose: 50.0 mg/kg/injection, schedule: Q01DX001 (ip), vehicle: saline with Tween-80 98 % of control | dose: 50.0 mg/kg/injection, schedule: Q01DX009 (ip), vehicle: other 93 % of control and 95 % of control | [13] 89 % of control and 97 % of control | dose: 50.0 mg/kg/injection, schedule: Q04DX003 (ip), vehicle: saline with Tween-80 104 % of control | dose: 100.0 mg/kg/injection, schedule: Q01DX001 (ip), vehicle: other 94 % of control | [9] 91 % of control | dose: 100.0 mg/kg/injection, schedule: Q01DX009 (ip), vehicle: other 115 % of control and 101 % of control | [14] 94 % of control and 96 % of control | dose: 100.0 mg/kg/injection, schedule: Q04DX003 (ip), vehicle: other 93 % of control | [6] 89 % of control | dose: 200.0 mg/kg/injection, schedule: Q01DX001 (ip), vehicle: other 98 % of control | [10] 95 % of control | dose: 200.0 mg/kg/injection, schedule: Q01DX009 (ip), vehicle: other 102 % of control and 108 % of control | [15] 96 % of control and 105 % of control | dose: 200.0 mg/kg/injection, schedule: Q04DX003 (ip), vehicle: other 96 % of control | [7] 101 % of control | dose: 400.0 mg/kg/injection, schedule: Q01DX001 (ip), vehicle: other 110 % of control | dose: 400.0 mg/kg/injection, schedule: Q01DX009 (ip), vehicle: other 101 % of control and 104 % of control | [16] 105 % of control | dose: 400.0 mg/kg/injection, schedule: Q04DX003 (ip), vehicle: other 100 % of control

NC(=S)N/N=C\c1cccs1
inactive: [6] 97 % of control | [7] 100 % of control | [8] 96 % of control

Oc1ccccc1-c1nnc(-c2ccccc2)o1
inactive: [13] 91 % of control | [2] 87 % of control | [4] 95 % of control | [5] 87 % of control

CCOC(C[Se][Se]CC(OCC)OCC)OCC
inactive: dose: 3.13 mg/kg/injection, schedule: Q01DX009 (ip), vehicle: saline 100 % of control | dose: 6.25 mg/kg/injection, schedule: Q01DX009 (ip), vehicle: saline 108 % of control | dose: 6.25 mg/kg/injection, schedule: Q04DX003 (ip), vehicle: saline with Tween-80 95 % of control | dose: 12.5 mg/kg/injection, schedule: Q04DX003 (ip), vehicle: saline with Tween-80 102 % of control

CCOC(=O)C(C(C)=O)C(=O)CCc1ccccc1 (stereo not given)
inactive: [6] 99 % of control | [7] 100 % of control | [8] 103 % of control

Cc1ccc(S(=O)(=O)CCCCl)cc1
inactive: dose: 50.0 mg/kg/injection, schedule: Q01DX009 (ip), vehicle: Klucel (hydroxypropylcellulose) (HPC) 111 % of control | dose: 100.0 mg/kg/injection, schedule: Q01DX009 (ip), vehicle: Klucel (hydroxypropylcellulose) (HPC) 95 % of control | dose: 200.0 mg/kg/injection, schedule: Q01DX009 (ip), vehicle: Klucel (hydroxypropylcellulose) (HPC) 100 % of control

CNc1cc([N+](=O)[O-])ccc1Br
inactive: [14] 91 % of control | [15] 100 % of control | [16] 95 % of control

Cc1nc(N)[nH]c(=O)c1CCS
inactive: [11] 97 % of control | dose: 200.0 mg/kg/injection, schedule: Q01DX001 (ip), vehicle: saline 100 % of control

CC(C)CCCC(C)C1CCC2C3CC=C4CC(OCCC(C)C)CCC4(C)C3CCC12C (stereo not given)
inactive: [6] 97 % of control | [7] 95 % of control | [8] 88 % of control
